# According to patent publication US20240400638A1, “COMBINATION OF RELAXIN AND VASOPRESSIN ANALOGUES FOR TREATMENT OF RENAL DISORDERS OR CONDITIONS” (River 2 Renal Corp., priority 2021, published 2024):
# Read-outs that look alike come from different tables or passages of the source. Numbered stars: 1 amine (or outer) side, 2 acyl side, 3 side chain; on linkers, the order of the positions; unused ones are H or OH. Square brackets hold non-standard residues; d marks the D form. Side chains are listed from the residue outwards. Peptide text beside a SMILES is read from it. * marks the point of attachment. X1 = CCCCCCCCCCCCCCCC(=O)N[C@@H](CCC(=O)N[C@@H](CCC(=O)N[C@@H](CCC(=O)NCCCOCCOCCOCCCNC(=O)CCC(=O)NCCCOCCOCCOCCCNC(=O)CCC(=O)NCCCOCCOCCOCCCN*)C(=O)O)C(=O)O)C(=O)O; Suc = O=C(CCC(=O)[*:2])[*:1]; αMeK = C[C@](N)(CCCCN)C(=O)O; Aib = CC(C)(N)C(=O)O
# Key:
# Type in all cases: in vivo, human
# [1] = Phase 1 SAD/MAD study in healthy volunteers: safety and tolerability
# Description: (§1) Described in this Example is a Phase 1, randomized, double-blind, pacebo controlled trial for assessing safety, tolerability, PK, and PD of a Relaxin Agonist (i.e., Relaxin peptide analogue of SEQ ID NO: 3).
# (§2) The SAD part A was a SAD study with a total of 40 subjects (n=8 per cohort; 6 to Relaxin Agonist and 2 to placebo) to be enrolled sequentially in up to 5 cohorts (Cohorts A1 to A5). Four cohorts received a dose via SC injection only and 1 cohort (Cohort A2, 4.0 mg) was dosed via both SC and IV injection, with at least 2-week washout period between SC and IV injections. The 4.0 mg dosing cohort (Cohort A2) received the IV dose after the 12.0 mg SC cohort (Cohort A3) was completed. Subjects in each cohort received 1 of 5 dose levels (1.0 mg, 4.0 mg, 12.0 mg, 24.0 mg, and 48.0 mg) or matching placebo as follows: • Cohort A1: a single SC dose of 1.0 mg Relaxin Agonist (n=6) or matching placebo (n=2) • Cohort A2: Period 1 a single SC dose of 4.0 mg Relaxin Agonist (n=6) or matching placebo (n=2) • Cohort A2: Period 2 a single 15-min IV dose of 4.0 mg Relaxin Agonist (n=6) or matching placebo (n=2) • Cohort A3: a single SC dose of 12.0 mg Relaxin Agonist (n=6) or matching placebo (n=2) • Cohort A4: a single SC dose of 24.0 mg Relaxin Agonist (n=6) or matching placebo (n=2) • Cohort A5: a single SC dose of 48.0 mg Relaxin Agonist (n=6) or matching placebo (n=2)
# In this first-in-human study, the subjects in all SAD cohorts were dosed according to a sentinel dosing design to ensure optimal safety. This meant that initially 2 subjects were dosed: 1 subject with Relaxin Agonist and 1 subject with placebo. If at the lowest dose level (Cohort A1) the safety and tolerability results of the first 48 h following dosing for the initial subjects was acceptable to the Investigator, the other 6 subjects (5 active and 1 placebo) were to be dosed. In Cohorts A2 to A5, the safety and tolerability results of the first 24 h following dose administration were evaluated in the first 2 subjects before the remainder of the subjects in that cohort are dosed.
# (§3) In the MAD part B of the study, a total of 24 subjects (n=8 per cohort; 6 to Relaxin Agonist and 2 to placebo) were enrolled sequentially (Cohorts B1 to B3) with subjects within a cohort being enrolled in a parallel fashion. Cohorts B1 to B3 receive one of 3 SC doses (5.0 mg, 15.0 mg, 30.0 mg once daily [QD]) as follows: • Cohort B1: 5.0 mg SC Relaxin Agonist (n=6) or matching placebo (n=2) QD for 14 days • Cohort B2: 15.0 mg SC Relaxin Agonist (n=6) or matching placebo (n=2) QD for 14 days • Cohort B3: 30.0 mg SC Relaxin Agonist (n=6) or matching placebo (n=2) QD for 14 days
# [2] = Phase 1 single dose study in severe renal impaired and normal renal function subjects: safety; details: single sc 4.0 mg
# Text: (§4) This study is an open label, phase 1, multi-centre, single dose study in severe renal impaired subjects and in matched subjects with normal renal function. In this preliminary evaluation, five subjects with severe renal impairment and two subjects with normal renal function were included.
# [3] = Phase 1 SAD/MAD study in healthy volunteers: pharmacokinetics; details: for AUC(0-t): read-out: AUC0-24
# Description: as §1, §2, §3
# After 24 mg and 48 mg sc doses, higher than dose-proportional exposures were observed (approximately 15% higher than expected).
# Therefore, after sc administration, the absolute bioavailability (F) is approximately 0.76.
# Preliminary PK results after single and multiple ascending doses of Relaxin Agonist administered subcutaneously (sc) are summarized in Table 6. For all dose regimens (5 mg, 15 mg, and 30 mg), an accumulation of approximately 2.6-fold was observed on Day 14.
# [4] = Phase 1 single dose study in severe renal impaired and normal renal function subjects: pharmacokinetics; details: for AUC(0-inf) / Cmax: human, in vivo, sc, 4 mg, single 4.0 mg sc; for AUC(0-inf): read-out: AUCINF_pred
# Text: as §4
# This study is a Phase 1, multi-center, single dose study in severe renal impaired subjects and in matched subjects with normal renal function. Five subjects with severe renal impairment and two subjects with normal renal function were included. PK sampling was performed predose and at 1, 2, 3, 4, 6, 8, 10, 12, 24, 48, 72, 96, and 120 h postdose.
# [5] = part B: once daily sc 5.0, 15.0, 30 mg for 14 days
# [6] = severe renal impaired group compared to normal group and SAD 4 mg group
smiles,measurement,setting,value
"CCCCCCCCCCCCCCCC(=O)N[C@@H](CCC(=O)N[C@@H](CCC(=O)N[C@@H](CCC(=O)NCCCOCCOCCOCCCNC(=O)CCC(=O)NCCCOCCOCCOCCCNC(=O)CCC(=O)NCCCOCCOCCOCCCNC(=O)CCC(=O)NCCCC[C@H](NC(=O)CNC(=O)[C@H](CCC(=O)O)NC(=O)C(C)(C)NC(=O)C(C)(C)NC(=O)[C@@H](NC(=O)[C@H](CCCCNC(C)=O)NC(=O)[C@H](C)NC(=O)[C@H](CCCNC(=N)N)NC(=O)[C@@H](NC(=O)[C@H](CCCCN)NC(=O)[C@H](CCC(=O)O)NC(=O)[C@H](CCCNC(=N)N)NC(=O)CNC(=O)[C@H](CCC(=O)O)NC(=O)[C@H](CC(C)C)NC(C)=O)C(C)C)[C@@H](C)CC)C(=O)N[C@@H](CO)C(=O)N[C@H](C(=O)N[C@@H](Cc1ccccc1)C(=O)N[C@@H](CO)C(=O)N[C@@](C)(CCCCN)C(=O)N[C@@H](CCCNC(=N)N)C(=O)N[C@@H](C)C(=O)N[C@@H](CCCCNC(C)=O)C(N)=O)[C@@H](C)O)C(=O)O)C(=O)O)C(=O)O [SEQ ID NO: 3, Ac-L-E-G-R-E-K-V-R-A-K(Ac)-I-Aib-Aib-E-G-K(TTDS-TTDS-TTDS-gE-gE-gE-Palm)-S--T-F-S-Mly-R-A-K(Ac)-NH2] (Ac-LEGREKVRAK(Ac)I[Aib][Aib]EGK([Suc-X1])STFS[αMeK]RAK(Ac)-NH2)",tolerability and safety,"[1]; part A: single sc 1.0, 4.0, 12.0, 24, 48 mg and single iv 4.0 mg",well tolerated and safe
same,severity of reported adverse events,[1]; part A: single sc 1.0-48 mg and iv 4.0 mg,mild (grade 1)
same,severity of reported adverse events,[1]; [5],mild (grade 1)
same,tolerability and safety,[1]; [5],well tolerated and safe
same,tolerability and safety,[2]; 5 subjects severe renal impairment and 2 normal renal function,well tolerated and safe
same,severity of reported adverse events,"[2]; two AEs (palpitation, headache) in one subject",grade 1 (mild)
same,AUCinf after iv administration as compared to sc administration,[3]; 4 mg single dose iv vs sc,~1.3 fold
same,Cmax after iv administration as compared to sc administration,[3]; 4 mg single dose iv vs sc,approximately 3.5 fold
same,accumulation,"[3]; Day 14, all dose regimens (5 mg, 15 mg, 30 mg sc QD)",approximately 2.6 fold
same,exposure higher than expected (higher than dose-proportional),[3]; after 24 mg and 48 mg sc single doses,approximately 15%
same,bioavailability,"[3]; human, in vivo, 4 mg, after sc administration, read-out: absolute bioavailability (F)",~76%
same,Cmax,"[3]; human, in vivo, iv, 4 mg, Group A2, single 4.0 mg iv, mean, N=6, read-out: Cmax",1240 ng/mL
same,Cmax,"[3]; human, in vivo, sc, 1 mg, Group A1, single 1.0 mg sc, mean, N=6, read-out: Cmax",82.9 ng/mL
same,Cmax,"[3]; human, in vivo, sc, 4 mg, Group A2, single 4.0 mg sc, mean, N=6, read-out: Cmax",356 ng/mL
same,AUC(0-t),"[3]; human, in vivo, sc, 5 mg, Group B1, 5 mg sc QD, Day 1, mean, N=6",7790 ng·h/mL
same,Cmax,"[3]; human, in vivo, sc, 5 mg, Group B1, 5 mg sc QD, Day 1, mean, N=6, read-out: Cmax",384 ng/mL
same,Cmax,"[3]; human, in vivo, sc, 5 mg, Group B1, 5 mg sc QD, Day 14, mean, N=6, Table 6, read-out: Cmax",1020 ng/mL
same,Cmax,"[3]; human, in vivo, sc, 5 mg, Group B1, 5 mg sc QD, Day 14, mean, N=6, Table 7, read-out: Cmax",1020 ng/mL
same,AUC(0-t),"[3]; human, in vivo, sc, 5 mg, Group B1, 5 mg sc QD, Day 14, mean, N=6",21600 ng·h/mL
same,Cmax,"[3]; human, in vivo, sc, 12 mg, Group A3, single 12.0 mg sc, mean, N=6, read-out: Cmax",1000 ng/mL
same,AUC(0-t),"[3]; human, in vivo, sc, 15 mg, Group B2, 15 mg sc QD, Day 1, mean, N=6",29600 ng·h/mL
same,Cmax,"[3]; human, in vivo, sc, 15 mg, Group B2, 15 mg sc QD, Day 1, mean, N=6, read-out: Cmax",1630 ng/mL
same,Cmax,"[3]; human, in vivo, sc, 15 mg, Group B2, 15 mg sc QD, Day 14, mean, N=6, Table 6, read-out: Cmax",3630 ng/mL
same,Cmax,"[3]; human, in vivo, sc, 15 mg, Group B2, 15 mg sc QD, Day 14, mean, N=6, Table 7, read-out: Cmax",3630 ng/mL
same,AUC(0-t),"[3]; human, in vivo, sc, 15 mg, Group B2, 15 mg sc QD, Day 14, mean, N=6",67200 ng·h/mL
same,Cmax,"[3]; human, in vivo, sc, 24 mg, Group A4, single 24.0 mg sc, mean, N=6, read-out: Cmax",2360 ng/mL
same,AUC(0-t),"[3]; human, in vivo, sc, 30 mg, Group B3, 30 mg sc QD, Day 1, mean, N=6",38400 ng·h/mL
same,Cmax,"[3]; human, in vivo, sc, 30 mg, Group B3, 30 mg sc QD, Day 1, mean, N=6, read-out: Cmax",2010 ng/mL
same,Cmax,"[3]; human, in vivo, sc, 30 mg, Group B3, 30 mg sc QD, Day 14, mean, N=6, Table 6, read-out: Cmax",6010 ng/mL
same,Cmax,"[3]; human, in vivo, sc, 30 mg, Group B3, 30 mg sc QD, Day 14, mean, N=6, Table 7, read-out: Cmax",6010 ng/mL
same,AUC(0-t),"[3]; human, in vivo, sc, 30 mg, Group B3, 30 mg sc QD, Day 14, mean, N=6",118000 ng·h/mL
same,Cmax,"[3]; human, in vivo, sc, 48 mg, Group A5, single 48.0 mg sc, mean, N=6, read-out: Cmax",4560 ng/mL
same,Cmax,"[3]; human, in vivo, subcutaneous, 4 mg, SAD study after 4 mg, read-out: Mean Cmax",356 ng/mL
same,AUC(0-inf),"[3]; human, in vivo, Group A1, single 1.0 mg sc, mean, N=6",3220 ng·h/mL
same,AUC(0-inf),"[3]; human, in vivo, Group A2, single 4.0 mg iv, mean, N=6",19700 ng·h/mL
same,AUC(0-inf),"[3]; human, in vivo, Group A2, single 4.0 mg sc, mean, N=6",15000 ng·h/mL
same,AUC(0-inf),"[3]; human, in vivo, Group A3, single 12.0 mg sc, mean, N=6",37100 ng·h/mL
same,AUC(0-inf),"[3]; human, in vivo, Group A4, single 24.0 mg sc, mean, N=6",78600 ng·h/mL
same,AUC(0-inf),"[3]; human, in vivo, Group A5, single 48.0 mg sc, mean, N=6",178000 ng·h/mL
same,AUC(0-inf),"[3]; human, in vivo, Group B1, 5 mg sc QD, Day 14, mean, N=6",50300 ng·h/mL
same,half-life,"[3]; human, in vivo, Group B1, 5 mg sc QD, Day 14, mean, N=6, read-out: T½ (converted)",23.4 h
same,AUC(0-inf),"[3]; human, in vivo, Group B2, 15 mg sc QD, Day 14, mean, N=6",143000 ng·h/mL
same,half-life,"[3]; human, in vivo, Group B2, 15 mg sc QD, Day 14, mean, N=6, read-out: T½ (converted)",22.9 h
same,AUC(0-inf),"[3]; human, in vivo, Group B3, 30 mg sc QD, Day 14, mean, N=6",278000 ng·h/mL
same,half-life,"[3]; human, in vivo, Group B3, 30 mg sc QD, Day 14, mean, N=6, read-out: T½ (converted)",24.3 h
same,half-life,"[3]; human, in vivo, sc multiple ascending doses, read-out: Terminal half life",23 to 24 h
same,dose proportionality of exposures,"[3]; multiple ascending sc doses, up to dose regimen of 30 mg",increased dose-proportionally
same,dose proportionality of exposures,"[3]; single ascending sc doses, up to a dose of 12 mg",increased dose-proportionally
same,AUC(0-inf),"[4]; Normal renal function group, mean, N=2",12900 ng·h/mL
same,Cmax,"[4]; Normal renal function group, mean, N=2, read-out: Cmax",302 ng/mL
same,AUC(0-inf),"[4]; Severe renal impairment group, mean, N=5",17000 ng·h/mL
same,Cmax,"[4]; Severe renal impairment group, mean, N=5, read-out: Cmax",392 ng/mL
same,Cmax,"[4]; normal group, read-out: Mean Cmax",302 ng/mL
same,Cmax,"[4]; severe renal impaired group, read-out: Mean Cmax",392 ng/mL
same,increase of mean AUCinf,[4]; [6],14-31%
same,increase of mean Cmax,[4]; [6],10-30%
